PubChem BioAssay (NCI)
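Exposure lasted 48 hours, with cells grown in 96-well plates and compounds tested at five concentrations. The concentration for 50% growth inhibition is given as GI50. TGI is the concentration that stops growth completely.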

Experiments:
Test in all cases: growth of human tumour cells (NCI), 48 h
[1] = system: DU-145 prostate
[2] = system: CCRF-CEM leukemia
[3] = system: U251 CNS
[4] = system: RXF 393 renal
[5] = system: SK-MEL-28 melanoma
[6] = system: MDA-MB-435
[7] = system: M14 melanoma
[8] = system: K-562 leukemia
[9] = system: SNB-75 CNS
[10] = system: SR leukemia
[11] = system: SF-268 CNS
[12] = system: 786-0 renal
[13] = system: UACC-62 melanoma
[14] = system: UACC-257 melanoma
[15] = system: SN12C renal
[16] = system: KM12 colon
[17] = system: T-47D breast
[18] = system: BT-549 breast
[19] = system: TK-10 renal
[20] = system: SF-295 CNS
[21] = system: OVCAR-8 ovarian
[22] = system: HOP-62 NSCLC
[23] = system: MCF7 breast
[24] = system: NCI-H522 lung
[25] = system: HCC-2998 colon
[26] = system: CAKI-1 renal
[27] = system: OVCAR-4 ovarian
[28] = system: IGROV1 ovarian
[29] = system: MOLT-4 leukemia
[30] = system: UO-31 renal
[31] = system: MDA-MB-468 breast
[32] = system: MALME-3M melanoma
[33] = system: HOP-92 NSCLC
[34] = system: LOX IMVI melanoma
[35] = system: EKVX NSCLC
[36] = system: MDA-MB-231 breast
[37] = system: A498 renal
[38] = system: NCI-H23 lung
[39] = system: SF-539 CNS
[40] = system: HCT-116 colon
[41] = system: SK-OV-3 ovarian
[42] = system: HCT-15 colon
[43] = system: HL-60(TB) leukemia
[44] = system: NCI/ADR-RES ovarian
[45] = system: SK-MEL-2 melanoma
[46] = system: HT29 colon
[47] = system: SK-MEL-5 melanoma
[48] = system: A549 NSCLC
[49] = system: SNB-19 CNS
[50] = system: RPMI-8226 leukemia
[51] = system: OVCAR-5 ovarian
[52] = system: PC-3 prostate
[53] = system: NCI-H460 lung
[54] = system: HS 578T breast
[55] = system: COLO 205 colon
[56] = system: OVCAR-3 ovarian
[57] = system: ACHN renal
[58] = system: SW-620 colon
[59] = system: NCI-H226 lung

O=C(COc1ccc(NC(=O)Nc2ccc(Cl)c(Cl)c2)cc1)N=Nc1c(O)[nH]c2ccc(Cl)cc12
GI50 [1]: 2.96 µM | TGI [1]: 8.81 µM | GI50 [2]: 2.27 µM | TGI [2]: 5.54 µM | GI50 [3]: 1.9 µM | TGI [3]: 3.79 µM | GI50 [4]: 1.62 µM | TGI [4]: 3.13 µM | GI50 [5]: 1.89 µM | TGI [5]: 3.86 µM | GI50 [6]: 1.8 µM | TGI [6]: 3.68 µM | GI50 [7]: 1.81 µM | TGI [7]: 3.71 µM | GI50 [8]: 2.77 µM | TGI [8]: 7.1 µM | GI50 [9]: 1.58 µM | TGI [9]: 3.49 µM | GI50 [10]: 2.18 µM | TGI [10]: 9.97 µM | GI50 [11]: 2.23 µM | TGI [11]: 5.18 µM | GI50 [12]: 1.78 µM | TGI [12]: 3.8 µM | GI50 [13]: 1.98 µM | TGI [13]: 4.45 µM | GI50 [14]: 2 µM | TGI [14]: 4.15 µM | GI50 [15]: 1.93 µM | TGI [15]: 3.67 µM | GI50 [16]: 1.98 µM | TGI [16]: 4.38 µM | GI50 [17]: 2.01 µM | TGI [17]: 4.76 µM | GI50 [18]: 1.62 µM | TGI [18]: 3.3 µM | GI50 [19]: 2.86 µM | TGI [19]: 9.89 µM | GI50 [20]: 1.81 µM | TGI [20]: 3.54 µM | GI50 [21]: 2.3 µM | TGI [21]: 5.36 µM | GI50 [22]: 1.78 µM | TGI [22]: 3.65 µM | GI50 [23]: 2.08 µM | TGI [23]: 5 µM | GI50 [24]: 1.74 µM | TGI [24]: 3.57 µM | GI50 [25]: 2.58 µM | TGI [25]: 7.1 µM | GI50 [26]: 2.21 µM | TGI [26]: 4.89 µM | GI50 [27]: 2.26 µM | TGI [27]: 6.15 µM | GI50 [28]: 2.31 µM | TGI [28]: 5.73 µM | GI50 [29]: 1.84 µM | TGI [29]: 4.5 µM | GI50 [30]: 22.5 µM | TGI [30]: > 100 µM | GI50 [31]: 1.84 µM | TGI [31]: 3.54 µM | GI50 [32]: 1.68 µM | TGI [32]: 3.1 µM | GI50 [33]: 2.18 µM | TGI [33]: 4.87 µM | GI50 [34]: 1.73 µM | TGI [34]: 3.23 µM | GI50 [35]: 2.65 µM | TGI [35]: 9.28 µM | GI50 [36]: 1.93 µM | TGI [36]: 3.57 µM | GI50 [37]: 2.06 µM | TGI [37]: 5.28 µM | GI50 [38]: 2.08 µM | TGI [38]: 4.4 µM | GI50 [39]: 1.78 µM | TGI [39]: 3.4 µM | GI50 [40]: 1.85 µM | TGI [40]: 3.47 µM | GI50 [41]: 2.19 µM | TGI [41]: 4.98 µM | GI50 [42]: 7.94 µM | TGI [42]: > 100 µM | GI50 [43]: 2.05 µM | TGI [43]: 5.31 µM | GI50 [44]: > 100 µM | TGI [44]: > 100 µM | GI50 [45]: 2.07 µM | TGI [45]: 4.83 µM | GI50 [46]: 1.89 µM | TGI [46]: 3.58 µM | GI50 [47]: 1.72 µM | TGI [47]: 3.18 µM | GI50 [48]: 2.61 µM | TGI [48]: 7.01 µM | GI50 [49]: 2.66 µM | TGI [49]: 7.49 µM | GI50 [50]: 2.44 µM | TGI [50]: 6.2 µM | GI50 [51]: 2.11 µM | TGI [51]: 5.39 µM | GI50 [52]: 2.1 µM | TGI [52]: 5.07 µM | GI50 [53]: 1.92 µM | TGI [53]: 4.07 µM | GI50 [54]: 2.33 µM | TGI [54]: 6.36 µM | GI50 [55]: 1.76 µM | TGI [55]: 3.35 µM | GI50 [56]: 1.97 µM | TGI [56]: 4.1 µM | GI50 [57]: 3.23 µM | TGI [57]: 11.4 µM | GI50 [58]: 1.79 µM | TGI [58]: 3.59 µM | GI50 [59]: 2.06 µM | TGI [59]: 4.59 µM
